Results: patent US20120184517A1, “TREATMENT OF DISEASES WITH ALTERED SMOOTH MUSCLE CONTRACTILITY” (priority 2009, published 2012)

Experiments:
rat stroke models = conditions: in vivo; cited from earlier work
[1] = biological target: maxi-K potassium channels (Homo sapiens, UniProt Q12791); conditions: 50 nM intracellular Ca2+; cited from earlier work
[2] = biological target: T1, BK currents in tracheal ASM cells (Mus musculus, UniProt Q08460); test: Perforated whole cell voltage clamp of acutely isolated tracheal ASM, outward K+ current; assay type: cell-based; conditions: 0.5 μM ISO
T1 construct: The effect of ISO on BK currents in acutely isolated tracheal ASM was also determined; endogenous in cells; host or cells: acutely isolated tracheal airway smooth muscle cells
Experimental: FIG. 23A is a diary plot of current recorded during repetitive stimulation by depolarizing ramps every 5 seconds to +200 mV from a holding potential of −20 mV. ISO and ISO+IbTX exposure are indicated by bars at bottom of plot. Dashed line indicates average control current.
The effect of ISO on BK currents in acutely isolated tracheal ASM was also determined. ASM cells were studied using perforated whole cell voltage clamp. After obtaining access, outward K^+ current was monitored using a 0.5 second ramp, from a holding potential of −20 mV to +200 mV. […] Under the conditions used, the majority of the outward K^+ current is conducted by the BK channel, as shown by IbTX-blockade (FIGS. 23A and 23B).

tracheal rings = test: Isoproterenol-induced relaxation of tracheal rings from PBS- and OVA-sensitized animals; assay type: cell-based, murine; conditions: no rottlerin
Experimental: The isoproterenol-induced relaxation of tracheal rings from OVA-sensitized asthmatic animals was also tested. After induction of asthma, tracheal rings were removed and mounted on the myograph. […] At the conclusion of the experiment, each tracheal ring was exposed to methacholine to ensure viability of the ring and equivalent constriction.
After induction of asthma, tracheal rings were removed and mounted on the myograph. […] The ISO-relaxation curve was shifted downward and to the right, with the maximal relaxation response reduced to only ˜25% from more than 60%.

BKCa channel [3] = biological target: T2, BKCa channel (Homo sapiens, UniProt Q12791); conditions: cited from earlier work
[4] = not told; cited from earlier work
BKCa channel [5] = biological target: T2, BKCa channel; conditions: cytoplasmic side; cited from earlier work
[6] = biological target: T3, BKCa channel in porcine coronary artery cells (Sus scrofa, UniProt O18866); conditions: cited from earlier work
T3 construct: host or cells: porcine coronary artery cells

2K-1C hypertensive rats = conditions: hypertensive rat model compared to controls; cited from earlier work
[7] = test system: porcine coronary myocytes; conditions: 30 μM; cited from earlier work
BKCa channel (mSlo) = biological target: T4, BKCa channel (mSlo) (Mus musculus, UniProt Q08460); test: Whole cell patch clamp of HEK293 cells stably transfected with mSlo; assay type: cell-based, murine
T4 construct: expressed in transfected cells
Experimental: FIGS. 4A and 4B show representative current traces from whole cell patches with 5 mM EGTA in patch pipette. […] Voltage steps are shown at the right of each tracing; note the different maximum voltage steps +200 mV (upper) vs. +120 mV (lower). […] FIG. 4C G-V curves were constructed for indicated conditions utilizing tail analysis (Xia, et al., Multiple regulatory sites in large-conductance calcium-activated potassium channels. Nature, 2002. 418(6900):880-4). Solid lines were fitted with Boltzmann function. […] FIGS. 4D and 4E show experiments studying stable mslo HEK293 cells in whole cell configuration with a pipette solution containing 5 mM EGTA (˜0 free Ca^2+).
Current in the diary plot in FIG. 5B represents maximal current in ramp protocol at +70 mV. Holding potential of ramp was −20 mV, with ramp from −30 mV to +180 mV over 500 ms. The G-V curve in FIG. 5C was generated from the tail analysis as described in FIG. 4.
(§1) Current was monitored with a ramp protocol; holding potential −60 mV, with ramp from −80 mV to +150 mV over 500 ms. […] Analysis was performed using tail analysis with normalization as previously described (Xia, et al., Multiple regulatory sites in large-conductance calcium-activated potassium channels. Nature, 2002. 418(6900):880-4). […] Identification of the BKCa channel was determined by conductance and inhibition by iberiotoxin and TEA. […] Murine femoral arterial rings were isolated and placed in a wire myograph. […] The figures shown are representative of 4 similar experiments. Error bars are standard error of the mean (SEM). Asterisk (*) indicates p<0.001.

WT tracheal rings = test: Isoproterenol-induced relaxation of WT tracheal rings on a myograph; assay type: cell-based, murine; conditions: pre-incubation with β2-AR antagonist 100 nM
Experimental: (n=4 each). Asterisk (*) indicates P<0.05 versus vehicle (DMSO). […] Cumulative dose-response curves of WT tracheal rings to isoproterenol in the absence and presence of 100 nM iberiotoxin (IbTX), a specific BK channel inhibitor. Values in graphs are means±standard deviation.
In this experiment, murine tracheal smooth muscle cells were acutely isolated and whole cell patch clamped as previously described (Zakharov, S. et al., (2005) J Biol Chem 280, 30882-30887).
To dissect which (or both) β-AR pathways are responsible for the effects, tracheal rings were pre-incubated with either β1-AR antagonist (CGP 20712A; 100 nM) or a β2-AR antagonist (ICI 118551; 100 nM) or vehicle (DMSO). […] To confirm that the isoproterenol-induced relaxation was dependent upon BK channel-induced hyperpolarization, IbTX, a specific inhibitor of the BK channel, was used.

[8] = test system: murine femoral arterial rings; assay type: cell-based
Experimental: as §1

dilation to forskolin = conditions: cited from earlier work

T2 sequence (Q12791 whole entry): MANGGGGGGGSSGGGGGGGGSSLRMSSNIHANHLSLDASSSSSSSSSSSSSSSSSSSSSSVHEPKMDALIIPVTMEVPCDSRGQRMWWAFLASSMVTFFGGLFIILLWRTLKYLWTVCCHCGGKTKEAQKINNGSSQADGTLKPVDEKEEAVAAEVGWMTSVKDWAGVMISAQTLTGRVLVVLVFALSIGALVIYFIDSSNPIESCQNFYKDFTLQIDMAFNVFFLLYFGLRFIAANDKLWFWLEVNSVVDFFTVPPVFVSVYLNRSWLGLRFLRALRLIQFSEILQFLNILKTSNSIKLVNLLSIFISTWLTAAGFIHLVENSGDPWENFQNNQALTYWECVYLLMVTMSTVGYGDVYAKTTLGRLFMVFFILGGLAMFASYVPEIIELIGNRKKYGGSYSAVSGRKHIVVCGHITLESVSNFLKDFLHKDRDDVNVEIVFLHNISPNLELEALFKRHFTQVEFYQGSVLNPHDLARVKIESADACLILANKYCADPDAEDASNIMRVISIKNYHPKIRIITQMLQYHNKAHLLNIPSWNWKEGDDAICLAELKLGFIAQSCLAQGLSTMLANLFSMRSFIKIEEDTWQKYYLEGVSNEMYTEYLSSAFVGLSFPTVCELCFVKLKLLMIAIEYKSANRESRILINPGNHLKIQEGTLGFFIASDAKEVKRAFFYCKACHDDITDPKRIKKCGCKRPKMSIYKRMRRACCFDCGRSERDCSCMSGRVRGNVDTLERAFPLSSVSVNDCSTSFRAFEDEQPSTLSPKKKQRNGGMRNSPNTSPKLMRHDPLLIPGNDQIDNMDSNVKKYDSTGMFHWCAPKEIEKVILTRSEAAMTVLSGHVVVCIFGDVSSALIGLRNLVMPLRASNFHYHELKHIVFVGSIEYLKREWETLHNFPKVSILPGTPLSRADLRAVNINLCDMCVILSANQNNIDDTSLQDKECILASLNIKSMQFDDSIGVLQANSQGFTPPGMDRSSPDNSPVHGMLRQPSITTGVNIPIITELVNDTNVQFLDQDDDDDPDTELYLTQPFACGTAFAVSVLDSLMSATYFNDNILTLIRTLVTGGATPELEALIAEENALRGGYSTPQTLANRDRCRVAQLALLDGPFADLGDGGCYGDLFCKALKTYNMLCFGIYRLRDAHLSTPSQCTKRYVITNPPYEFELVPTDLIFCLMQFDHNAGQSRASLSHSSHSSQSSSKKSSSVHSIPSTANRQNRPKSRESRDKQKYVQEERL
T3 sequence (O18866 whole entry): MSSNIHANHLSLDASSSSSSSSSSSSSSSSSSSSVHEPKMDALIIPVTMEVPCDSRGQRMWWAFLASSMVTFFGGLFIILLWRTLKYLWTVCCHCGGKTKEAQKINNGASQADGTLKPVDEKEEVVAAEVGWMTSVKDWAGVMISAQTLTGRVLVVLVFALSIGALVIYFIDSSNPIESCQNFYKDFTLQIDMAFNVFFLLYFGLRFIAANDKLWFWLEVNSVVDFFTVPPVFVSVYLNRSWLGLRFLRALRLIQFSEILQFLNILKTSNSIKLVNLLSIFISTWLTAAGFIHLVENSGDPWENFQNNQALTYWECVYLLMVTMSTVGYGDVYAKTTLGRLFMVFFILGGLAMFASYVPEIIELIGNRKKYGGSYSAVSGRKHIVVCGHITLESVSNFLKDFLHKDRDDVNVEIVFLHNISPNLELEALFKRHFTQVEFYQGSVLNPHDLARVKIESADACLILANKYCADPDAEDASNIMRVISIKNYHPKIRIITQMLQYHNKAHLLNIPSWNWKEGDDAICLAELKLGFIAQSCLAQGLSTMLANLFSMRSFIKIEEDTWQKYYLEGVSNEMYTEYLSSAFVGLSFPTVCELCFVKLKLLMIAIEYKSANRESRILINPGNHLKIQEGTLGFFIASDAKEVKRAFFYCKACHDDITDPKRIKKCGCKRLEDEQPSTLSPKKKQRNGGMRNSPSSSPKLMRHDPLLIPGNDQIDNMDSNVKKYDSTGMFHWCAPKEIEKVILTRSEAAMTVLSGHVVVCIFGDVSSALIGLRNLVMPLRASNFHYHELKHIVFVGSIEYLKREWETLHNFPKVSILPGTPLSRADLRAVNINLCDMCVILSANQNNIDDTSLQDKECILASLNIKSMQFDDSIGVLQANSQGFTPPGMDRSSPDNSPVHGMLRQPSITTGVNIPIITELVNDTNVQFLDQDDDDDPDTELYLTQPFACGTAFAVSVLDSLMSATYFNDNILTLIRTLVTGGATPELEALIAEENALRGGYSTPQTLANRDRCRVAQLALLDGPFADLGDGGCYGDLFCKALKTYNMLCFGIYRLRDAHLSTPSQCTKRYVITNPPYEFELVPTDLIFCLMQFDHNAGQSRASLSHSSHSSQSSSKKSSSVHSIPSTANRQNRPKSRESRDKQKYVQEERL
T4 sequence (Q08460 whole entry): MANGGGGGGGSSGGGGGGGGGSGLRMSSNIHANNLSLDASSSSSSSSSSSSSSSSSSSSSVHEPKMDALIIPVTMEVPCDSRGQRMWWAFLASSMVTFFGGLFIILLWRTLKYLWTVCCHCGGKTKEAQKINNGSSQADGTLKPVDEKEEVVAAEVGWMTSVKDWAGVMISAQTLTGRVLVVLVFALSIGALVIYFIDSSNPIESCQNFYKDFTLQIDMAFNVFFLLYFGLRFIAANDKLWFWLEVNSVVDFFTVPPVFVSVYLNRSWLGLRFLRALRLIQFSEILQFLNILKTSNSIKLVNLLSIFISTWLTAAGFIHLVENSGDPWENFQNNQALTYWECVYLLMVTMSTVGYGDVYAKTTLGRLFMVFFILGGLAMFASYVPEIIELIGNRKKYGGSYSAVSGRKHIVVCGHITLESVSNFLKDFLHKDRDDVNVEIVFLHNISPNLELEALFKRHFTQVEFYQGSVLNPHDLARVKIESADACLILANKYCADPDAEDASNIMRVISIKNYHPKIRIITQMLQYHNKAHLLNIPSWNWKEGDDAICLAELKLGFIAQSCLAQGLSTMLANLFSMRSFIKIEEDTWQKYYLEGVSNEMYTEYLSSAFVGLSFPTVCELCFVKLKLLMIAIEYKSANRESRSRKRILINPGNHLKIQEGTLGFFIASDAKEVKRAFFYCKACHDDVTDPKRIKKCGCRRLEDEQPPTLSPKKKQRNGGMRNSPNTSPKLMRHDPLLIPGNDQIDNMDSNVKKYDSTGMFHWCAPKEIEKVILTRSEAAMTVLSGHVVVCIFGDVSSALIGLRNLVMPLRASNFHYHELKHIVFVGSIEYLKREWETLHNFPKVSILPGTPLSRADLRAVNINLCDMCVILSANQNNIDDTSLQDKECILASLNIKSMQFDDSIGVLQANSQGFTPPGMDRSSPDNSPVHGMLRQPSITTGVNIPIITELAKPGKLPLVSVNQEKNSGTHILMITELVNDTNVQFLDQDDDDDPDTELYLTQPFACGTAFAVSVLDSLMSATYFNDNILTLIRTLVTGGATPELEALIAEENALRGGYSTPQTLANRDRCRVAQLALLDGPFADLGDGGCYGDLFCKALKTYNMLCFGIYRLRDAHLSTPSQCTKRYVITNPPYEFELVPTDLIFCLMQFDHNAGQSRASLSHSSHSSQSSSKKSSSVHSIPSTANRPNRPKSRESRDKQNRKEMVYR
Sequence of maxi-K potassium channels (Q12791 whole entry): as the sequence (Q12791 whole entry) above
T1 sequence (Q08460 whole entry): as the sequence (Q08460 whole entry) above
T1 sequence (Q8CAE3 whole entry partner): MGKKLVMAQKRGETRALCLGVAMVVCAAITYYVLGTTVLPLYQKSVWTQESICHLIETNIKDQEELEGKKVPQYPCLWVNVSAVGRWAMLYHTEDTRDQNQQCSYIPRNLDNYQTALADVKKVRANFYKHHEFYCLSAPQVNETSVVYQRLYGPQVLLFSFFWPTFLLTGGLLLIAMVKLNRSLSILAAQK

Compound: COc1ccc(Cl)cc1[C@]1(F)C(=O)Nc2cc(C(F)(F)F)ccc21 [BMS-204352]
- brain infarct size (rat stroke models): reduction in brain infarct size
- effect on current [1]: almost no effect

Compound: CC(C)NCC(O)c1ccc(O)c(O)c1 (centres unmarked) [isoproterenol, reference compound]
- increase of outward K+ current [2]: more than 50%
- maximal relaxation response to isoproterenol (tracheal rings; OVA-sensitized rings): ~25%
- maximal relaxation response to isoproterenol (tracheal rings; control rings): more than 60%

Compound: dehydrosoyasaponin-I [DHS-I]
- BKCa channel activation (BKCa channel [3]): activate BKCa channels
- channel activity with α and β subunits co-expressed (BKCa channel [3]): increases channel activity
- membrane permeability [4]: poor

Compound: CC1(C)C[C@@H](O)[C@]2(C)CC[C@]3(C)C(=CC[C@@H]4[C@@]5(C)CC[C@H](O[C@@H]6O[C@H](C(=O)O)[C@@H](O)[C@H](O)[C@H]6O[C@@H]6O[C@H](CO)[C@H](O)[C@H](O)[C@H]6O)[C@](C)(CO)[C@@H]5CC[C@]43C)[C@@H]2C1 [soyasaponin III]
- BKCa channel activation (BKCa channel [3]): activate BKCa channels

Compound: C=C[C@]1(C)C=C2CC[C@@]3(O)C(C)(C)CC[C@H](O)[C@]3(C)C2CC1 (some centres unmarked) [Maxikdiol]
- membrane permeability [4]: limited
- concentration of significant effect (BKCa channel [5]): 3 to 10 µM
- threshold of channel activation (BKCa channel [5]): 1 µM

Compound: O=C(Nc1cccc(C(F)(F)F)c1)Nc1cc(Cl)ccc1O [NS1608]
- effect at higher concentrations ([6]; 50 μM): inhibitory effect
- concentration of maximum activation [6]: 5 to 10 µM
- minimum effective concentration [6]: 0.5 µM

Compound: C[C@@H]1O[C@@H](O[C@H]2[C@H](O[C@H]3[C@H](O[C@H]4CC[C@@]5(C)[C@@H](CC[C@]6(C)[C@@H]5CC=C5[C@@H]7CC(C)(C)C[C@@H](O)[C@]7(C)CC[C@]56C)[C@@]4(C)CO)O[C@H](C(=O)O)[C@@H](O)[C@@H]3O)O[C@H](CO)[C@H](O)[C@@H]2O)[C@H](O)[C@H](O)[C@H]1O [soyasaponin I]
- BKCa channel activation (BKCa channel [3]): activate BKCa channels

Compound: O=c1[nH]c2cc(C(F)(F)F)ccc2n1-c1cc(C(F)(F)F)ccc1O [NS-1619]
- efficacy in mediating vascular relaxation (2K-1C hypertensive rats): diminished
- intracellular Ca2+ concentration [7]: increase intracellular Ca^2+ concentration
- peak K+ current (BKCa channel (mSlo); NS-1619 10 μM extracellular): activated peak K^+ current

Compound: Cc1ccc(OCC(O)C(C)NC(C)C)c2c1CCC2 (centres unmarked) [ICI 118551, reference compound]
- isoproterenol dose-response curve (WT tracheal rings): rightward shift in the dose-response curve

Compound: CC[N+](CC)(CC)CC [TEA, tetraethylammonium, reference compound]
- effect on the rottlerin mediated effect [8]: inhibited
- effect on rottlerin induced BKCa activation (BKCa channel (mSlo)): reversibly inhibited

Compound: Ryanodine
- reduction of dilation to forskolin (dilation to forskolin): 80%
